“Also recorded” adds a separate entry of the source.
How the values were obtained:
[1] = target: cdk2; test: in vitro cdk2 kinase assay with GST-fusion proteins, histone H1 substrate; assay type: biochemical; set-up: key to Kinase assay (inhibitory effect on cdk2 activity): P=positive; N=negative; conditions: for Kinase assay (inhibitory effect on cdk2 activity): 0.1 μg GST-fusion protein, cdk2 immunoprecipitated from NIH/3T3; for inhibitory effect on cdk2 activity / histone H1 phosphorylation in vitro: GST-fusion protein added to cdk2 immunoprecipitate from NIH/3T3
Procedure: Constructs preparation: A prokaryotic expression vector pGEX-2T (Stratagene Inc., La Jolla Calif.) and polymerase chain reaction (PCR) were used to generate chimeric Glutathione-S-Transferase constructs. The primers used by PCR to amplify the fragments that were subcloned in the pGEX-2T were derived from the 5′ and 3′ ends of different regions of the spacer domain of […]. The mammalian expression vector pEF6/V5-His TOPO (Invitrogen Corp, Carlsbad, Calif.) was used to generate the constructs pEF6/V5-His-spacer and pEF6/V5-His-310 that express the correspondent genes with a C-terminal V5 epitope. The spacer and the 310 fragments were PCR-amplified with the respective primers (Table 1) to generate 3′ends of the cDNAs without stop codons and were subsequently subcloned into pEF6/V5-His TOPO (Invitrogen Corp, Carlsbad, Calif.) according to the manufacturer's instructions to obtain cDNAs coding for C-terminal fusion proteins. All generated constructs were confirmed by automated sequencing. Information regarding the primers is available upon request.
GST Fusion protein preparation: XL1-Blue bacteria carrying the pGEX-2T vectors were grown to mid log phase and then induced to express protein by adding 0.25 mM of isopropyl-1-thio-β-D-galactopyranoside (IPTG, Roche Applied Science, Indianapolis, Ind.). The cultures were shaken for 4 h; bacteria were then pelleted and resuspended in NENT buffer (20 mM Tris pH 8, 100 mM NaCl, 1 mM EDTA, 0.5% NP-40). Cell suspensions were sonicated, pelleted and the supernatant collected. The remaining bacteria were then resuspended in NENT buffer plus 2% of N-Lauryl-Sarcosine, pelleted and the supernatants were collected again. The combined supernatants were incubated with Glutathione agarose (Amersham Biosciences, Piscataway, N.J.) overnight at 4° C. The agarose was then pelleted and washed three times in NENT buffer.
Kinase assays: Cell lysates from NIH/3T3 were prepared by resuspending pelleted cells in 500 μl of lysis buffer (50 mM Tris, 5 mM EDTA, 250 mM NaCl, 50 mM NaF, 0.1% Triton, 0.1 mM Na3VO4, plus protease inhibitors). An equal amount of protein for each fraction (100 μg) was immunoprecipitated with a polyclonal anti-cdk2 antibody (De Luca et al., 1997, J Biol Chem, 272, 20971-4). The complexes were pulled down with protein A-Sepharose and washed three times with lysis buffer and twice with lysis buffer containing 400 mM NaCl. The complexes were equilibrated in kinase assay buffer (20 mM HEPES pH 7.4, 10 mM MgAc, […], 1 mM DTT). In order to detect the in vitro inhibition of cdk2 activity, each sample was incubated with an equal amount (0.1 μg) of each pGEX-2T fusion protein, in a final volume of 20 μl of kinase buffer, using 5 μCi/sample of γ-ATP (Amersham Biosciences, Piscataway, N.J.) and 2 μg of Histone H1 for 30 minutes at 30° C. Kinase assays were repeated at least three times, giving an inter assay standard deviation within 10% after normalization for protein amount. In order to evaluate the in vivo inhibition of cdk2 activity, cdk2 was immunoprecipitated, as described above, from NIH/3T3 cells transiently transfected with 5 μg of pEF6/V5-spacer, pEF6/V5-Spa310 or the vector alone as a control. The immunocomplexes were split in two tubes. A half of each sample was assayed for cdk2 activity in a final volume of 20 μl of kinase buffer with 5 μCi/sample of γ-ATP and 2 μg of Histone H1 for 30 min. at 30° C.; the second one was tested in western blot analysis to confirm that all the samples contained the amount of cdk2 immunoprecipitated. Briefly the samples were separated into 12% SDS polyacrylamide gels (SDS-PAGE), and then transferred into a nitrocellulose membrane (Schleicher & Schuell, Germany). The membrane was blocked with 5% non-fat dry milk in 1×TBST and incubated with the polyclonal anti-cdk2 antibody described above. […]

[2] = system: NIH/3T3 cells; test: cell cycle analysis by flow cytometry (FACS); assay type: cell-based; conditions: NIH/3T3 transiently transfected, EGFP-gated; 48 h after transfection; propidium iodide
Procedure: A marker plasmid expressing enhanced green fluorescent protein (EGFP)-spectrin was included in the transfection mixture. Control cells, which were not transfected with EGFP-spectrin, were used as the EGFP-negative population. Cells were harvested and examined for their cell cycle states by fluorescence-activated cell sorter (FACS) analysis. After harvest, cells were fixed by adding ice-cold 70% ethanol while vortexing. Fixed cells were stored at 4° C. for at least 30 min and then washed once with PBS. Cells were then stained with 10 μg/ml propidium iodide (Roche Applied Science, Indianapolis, Ind.), 250 μg/ml RNase (Sigma, St. Louis, Mo.) in PBS and incubated at 37° C. for 30 min in the dark. Transfected cells were gated according to their EGFP expression and the DNA content was determined by flow cytometry analysis. The percentage of cells in the different phases of the cell cycle was measured with a FACS Calibur instrument (Becton-Dickinson, San Jose, Calif.) and the data obtained were analyzed by WinMDI 2.8 software. […]
In FIG. 5a, three plasmids were co-expressed with EGFP-spectrin, in a 1:10 ratio, in transient transfection assays. Cells were harvested 48 hours after transfection, stained with propidium iodide and analyzed by flow cytometric gating for both GFP and propidium iodide. […]

| Kinase assay (inhibitory effect on cdk2 activity) [1] | Molecule | inhibitory effect on cdk2 activity / histone H1 phosphorylation in vitro [1] | effect on cell cycle distribution [2] |
| --- | --- | --- | --- |
| P | Spa310: pRb2/p130 amino acids 641-679 (39 amino acids long), SEQ ID NO:3; LTPRRVTEVRADTGGLGRSITSPTTLYDRYSSPPASTTR (listed as Homo sapiens) | able to maintain the specific inhibitory ability; also recorded: strongly and similarly inhibited cdk2 activity | induced a G0/G1 arrest of the cell cycle |
| P | Spacer: full-length pRb2/p130 spacer domain, amino acids 616-828 (SEQ ID NO:20) (protein, listed as Homo sapiens) VPTCEEVMPPQNLERADEICIAGSPLTPRRVTEVRADTGGLGRSITSPTTLYDRYSSPPASTTRRRLFVENDSPSDGGTPGRMPPQPLVNAVPVQNVSGETVSVTPVPGQTLVTMATATVTANNGQTVTIPVQGIANENGGITFFPVQVNVGGQAQAVTGSIQPLSAQALAGSLSSQQVTGTTLQVPGQVAIQQISPGGQQQKQGQSVTSSSN | strongly and similarly inhibited cdk2 activity | induced a G0/G1 arrest of the cell cycle |
